# According to patent US20190192699A1, “NUCLEAR IMAGING AND RADIOTHERAPEUTICS AGENTS TARGETING CARBONIC ANHYDRASE IX AND USES THEREOF” (THE JOHNS HOPKINS UNIVERSITY, priority 2016, published 2019):
# Test system: SK-RC-52 xenografts
# Assay: Biodistribution of [111In]XYIMSR-01 and [177Lu]XYIMSR-01
# Assay type: in vivo, mice
# Method: Cell Lines and Mouse Models. Animal experiments were performed in accordance with protocols approved by the Johns Hopkins Animal Care and Use Committee (ACUC). Six-week-old female NOD/SCID mice were purchased from the Animal Resource Core of the Sidney Kimmel Comprehensive Cancer Center of Johns Hopkins and were subcutaneously injected in the lower left flank or upper right flank with 1×10^6 SK-RC-52 cells in RPMI 1640 GlutaMAX™ media (Life Technologies, Frederick, Md.) supplemented with 1% fetal bovine serum (FBS). Mice were monitored for tumor size and used for SPECT/CT imaging when the size of the tumor reached 100 mm^3.
# Biodistribution of [^111In]XYIMSR-01 and [^177Lu]XYIMSR-01. Mice bearing SK-RC-52 xenografts at lower left flank were injected intravenously with 740 kBq (20 μCi) of [^111In]XYIMSR-01, or [^177Lu]XYIMSR-01 in 200 μL of PBS. For competitive blocking, same tumor bearing mice were injected with 740 kBq (20 μCi) of [^111In]XYIMSR-01 and 200 nmole of 1 in 200 μL of PBS. At 1 h, 4 h, 8 h, 24 h and 48 h post-injection, mice were sacrificed by cervical dislocation and the blood was immediately collected by cardiac puncture. Heart, lungs, pancreas, spleen, fat, brain, muscle, small intestines, liver, stomach, kidney, urinary bladder, and tumor were collected. Each organ was weighed and the tissue radioactivity was measured with an automated gamma counter (1282 Compugamma CS, Pharmacia/LKBNuclear, Inc., Mt. Waverly, Vic. Australia). The percentage of injected dose per gram of tissue (% ID/g) was calculated by comparison with samples of a standard dilution of the initial dose. All measurements were corrected for radioactive decay.
# Data were expressed as mean±standard deviation (SD). Prism software (GraphPAD, San Diego, Calif.) was used to determine statistical significance. Statistical significance was calculated using a paired t test. P-values […] were considered significant.
# [1] = 24 hr + Block (200 nmole of 1 co-injected)
smiles,measurement,setting,value
CC(CCC(=O)N[C@@H](CC(=O)N[C@@H](CC(=O)N[C@@H](CCCCn1cc(CCCC(=O)Nc2nnc(S(N)(=O)=O)s2)nn1)C(=O)NCCOCCOCCNC(=O)CN1CCN(CC(=O)[O-])CCN(CC(=O)[O-])CCN(CC(=O)[O-])CC1)C(=O)O)C(=O)O)(c1ccc(O)cc1)c1ccc(O)cc1.[177Lu+3] [[^177Lu]XYIMSR-01],Biodistribution: Bladder,1 hr post-injection,26.55 ± 11.08 % ID/g
same,Biodistribution: Blood,1 hr post-injection,0.55 ± 0.06 % ID/g
same,Biodistribution: Brain,1 hr post-injection,0.49 ± 0.08 % ID/g
same,Biodistribution: Fat,1 hr post-injection,1.07 ± 0.58 % ID/g
same,Biodistribution: Heart,1 hr post-injection,3.59 ± 0.73 % ID/g
same,Biodistribution: Kidney,1 hr post-injection,40.77 ± 6.68 % ID/g
same,Biodistribution: Liver,1 hr post-injection,4.15 ± 0.39 % ID/g
same,Biodistribution: Lung,1 hr post-injection,23.72 ± 6.49 % ID/g
same,Biodistribution: Muscle,1 hr post-injection,1.42 ± 0.40 % ID/g
same,Biodistribution: Pancreas,1 hr post-injection,2.03 ± 0.25 % ID/g
same,Biodistribution: Small intestine,1 hr post-injection,6.11 ± 0.68 % ID/g
same,Biodistribution: Spleen,1 hr post-injection,0.29 ± 0.07 % ID/g
same,Biodistribution: Stomach,1 hr post-injection,12.20 ± 1.66 % ID/g
same,Biodistribution: Tumor,1 hr post-injection,26.91 ± 6.06 % ID/g
same,Tumor/Blood ratio,1 hr post-injection,47.9 ± 13.4
same,Tumor/Kidney ratio,1 hr post-injection,0.6 ± 0.2
same,Tumor/Muscle ratio,1 hr post-injection,18.8 ± 5.0
same,Biodistribution: Bladder,4 hr post-injection,6.60 ± 3.66 % ID/g
same,Biodistribution: Blood,4 hr post-injection,0.18 ± 0.02 % ID/g
same,Biodistribution: Brain,4 hr post-injection,0.33 ± 0.04 % ID/g
same,Biodistribution: Fat,4 hr post-injection,0.56 ± 0.14 % ID/g
same,Biodistribution: Heart,4 hr post-injection,1.52 ± 0.54 % ID/g
same,Biodistribution: Kidney,4 hr post-injection,19.17 ± 2.82 % ID/g
same,Biodistribution: Liver,4 hr post-injection,1.79 ± 0.44 % ID/g
same,Biodistribution: Lung,4 hr post-injection,10.35 ± 1.86 % ID/g
same,Biodistribution: Muscle,4 hr post-injection,0.65 ± 0.19 % ID/g
same,Biodistribution: Pancreas,4 hr post-injection,0.99 ± 0.19 % ID/g
same,Biodistribution: Small intestine,4 hr post-injection,2.64 ± 0.17 % ID/g
same,Biodistribution: Spleen,4 hr post-injection,0.15 ± 0.03 % ID/g
same,Biodistribution: Stomach,4 hr post-injection,6.06 ± 1.57 % ID/g
same,Biodistribution: Tumor,4 hr post-injection,26.28 ± 4.25 % ID/g
same,Tumor/Blood ratio,4 hr post-injection,150.3 ± 34.6
same,Tumor/Kidney ratio,4 hr post-injection,1.4 ± 0.4
same,Tumor/Muscle ratio,4 hr post-injection,43.7 ± 16.8
same,Biodistribution: Bladder,8 hr post-injection,6.00 ± 3.52 % ID/g
same,Biodistribution: Blood,8 hr post-injection,0.16 ± 0.05 % ID/g
same,Biodistribution: Brain,8 hr post-injection,0.44 ± 0.08 % ID/g
same,Biodistribution: Fat,8 hr post-injection,0.46 ± 0.17 % ID/g
same,Biodistribution: Heart,8 hr post-injection,1.49 ± 0.59 % ID/g
same,Biodistribution: Kidney,8 hr post-injection,18.99 ± 6.14 % ID/g
same,Biodistribution: Liver,8 hr post-injection,1.87 ± 0.77 % ID/g
same,Biodistribution: Lung,8 hr post-injection,8.87 ± 3.30 % ID/g
same,Biodistribution: Muscle,8 hr post-injection,0.47 ± 0.18 % ID/g
same,Biodistribution: Pancreas,8 hr post-injection,1.03 ± 0.50 % ID/g
same,Biodistribution: Small intestine,8 hr post-injection,3.67 ± 0.93 % ID/g
same,Biodistribution: Spleen,8 hr post-injection,0.29 ± 0.05 % ID/g
same,Biodistribution: Stomach,8 hr post-injection,6.15 ± 2.65 % ID/g
same,Biodistribution: Tumor,8 hr post-injection,27.48 ± 4.32 % ID/g
same,Tumor/Blood ratio,8 hr post-injection,178.6 ± 36.6
same,Tumor/Kidney ratio,8 hr post-injection,1.5 ± 0.3
same,Tumor/Muscle ratio,8 hr post-injection,65.0 ± 19.0
same,Biodistribution: Bladder,[1],0.73 ± 0.55 % ID/g
same,Biodistribution: Blood,[1],0.04 ± 0.02 % ID/g
same,Biodistribution: Brain,[1],0.04 ± 0.01 % ID/g
same,Biodistribution: Fat,[1],0.03 ± 0.03 % ID/g
same,Biodistribution: Heart,[1],0.08 ± 0.04 % ID/g
same,Biodistribution: Kidney,[1],1.54 ± 1.44 % ID/g
same,Biodistribution: Liver,[1],0.46 ± 0.34 % ID/g
same,Biodistribution: Lung,[1],0.73 ± 0.58 % ID/g
same,Biodistribution: Muscle,[1],0.03 ± 0.01 % ID/g
same,Biodistribution: Pancreas,[1],0.05 ± 0.03 % ID/g
